Measured values published in patent US12581252B2, “Substituted pyrrolo[3,4-b]pyridines as PI3K-α inhibitors” (Relay Therapeutics, Inc., priority 2020, dated 2026).

target: H1047R PIK3CA enzyme (Homo sapiens, UniProt P42336, H1047R); assay: ADP-Glo Biochemical PIK3CA Kinase Assay
Sequence (P42336 whole entry H1047R): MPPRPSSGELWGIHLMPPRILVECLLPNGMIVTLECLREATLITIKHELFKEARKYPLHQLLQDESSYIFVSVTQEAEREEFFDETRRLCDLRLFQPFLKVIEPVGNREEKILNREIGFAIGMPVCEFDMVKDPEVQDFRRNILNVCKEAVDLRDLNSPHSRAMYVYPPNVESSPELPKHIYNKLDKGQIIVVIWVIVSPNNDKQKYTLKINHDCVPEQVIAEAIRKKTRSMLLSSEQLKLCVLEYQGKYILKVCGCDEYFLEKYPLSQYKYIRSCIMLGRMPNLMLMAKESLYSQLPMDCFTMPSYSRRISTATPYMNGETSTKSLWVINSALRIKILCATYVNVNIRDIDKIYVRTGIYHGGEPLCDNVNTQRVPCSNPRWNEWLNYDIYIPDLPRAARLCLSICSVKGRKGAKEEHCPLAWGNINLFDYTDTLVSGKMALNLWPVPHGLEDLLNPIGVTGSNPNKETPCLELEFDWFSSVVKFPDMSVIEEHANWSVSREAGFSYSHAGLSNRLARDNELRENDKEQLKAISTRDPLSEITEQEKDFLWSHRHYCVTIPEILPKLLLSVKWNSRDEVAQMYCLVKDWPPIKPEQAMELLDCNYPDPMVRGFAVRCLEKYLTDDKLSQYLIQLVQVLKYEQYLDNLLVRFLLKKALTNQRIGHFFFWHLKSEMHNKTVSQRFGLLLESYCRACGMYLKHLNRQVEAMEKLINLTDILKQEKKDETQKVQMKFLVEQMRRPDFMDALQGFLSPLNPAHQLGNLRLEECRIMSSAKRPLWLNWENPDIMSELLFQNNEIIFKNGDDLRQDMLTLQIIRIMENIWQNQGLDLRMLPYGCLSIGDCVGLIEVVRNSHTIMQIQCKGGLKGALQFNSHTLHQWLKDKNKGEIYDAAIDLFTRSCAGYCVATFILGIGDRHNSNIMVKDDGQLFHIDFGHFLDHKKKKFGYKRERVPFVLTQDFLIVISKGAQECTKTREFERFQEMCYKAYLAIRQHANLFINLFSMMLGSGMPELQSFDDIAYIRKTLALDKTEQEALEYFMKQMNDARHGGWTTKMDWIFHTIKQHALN
Sequence (P27986 whole entry partner): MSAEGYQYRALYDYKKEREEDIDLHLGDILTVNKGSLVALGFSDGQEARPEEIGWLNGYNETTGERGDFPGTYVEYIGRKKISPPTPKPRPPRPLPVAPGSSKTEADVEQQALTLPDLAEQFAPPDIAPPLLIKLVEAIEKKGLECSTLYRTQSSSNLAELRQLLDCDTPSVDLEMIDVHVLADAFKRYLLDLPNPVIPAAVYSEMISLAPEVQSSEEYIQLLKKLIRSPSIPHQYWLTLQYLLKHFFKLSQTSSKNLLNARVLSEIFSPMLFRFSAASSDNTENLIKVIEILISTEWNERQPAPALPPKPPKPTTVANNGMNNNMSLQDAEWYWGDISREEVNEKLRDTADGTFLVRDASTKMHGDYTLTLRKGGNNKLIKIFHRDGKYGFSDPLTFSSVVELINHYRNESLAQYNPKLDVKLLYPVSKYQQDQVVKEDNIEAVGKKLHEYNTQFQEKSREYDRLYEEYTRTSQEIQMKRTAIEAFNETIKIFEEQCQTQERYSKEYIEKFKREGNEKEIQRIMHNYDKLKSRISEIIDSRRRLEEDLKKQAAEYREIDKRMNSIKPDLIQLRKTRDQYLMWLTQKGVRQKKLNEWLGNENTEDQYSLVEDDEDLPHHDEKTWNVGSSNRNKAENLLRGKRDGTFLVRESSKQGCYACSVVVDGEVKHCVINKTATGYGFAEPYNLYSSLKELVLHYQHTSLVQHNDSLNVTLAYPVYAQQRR

Row | Structure (SMILES) | IC50
1 | N#CCOc1cc(-c2ccc3ncnn3c2)cc2c1C(c1cc(F)ccc1Cl)NC2=O (stereo not drawn) [Compound I-2022] | 10000 to 100000 nM
2 | CSc1nc(NC(=O)c2cc(F)cc(C(F)(F)F)c2)c2c(n1)C(=O)NC2c1ccccc1Cl (stereo not drawn) [Compound I-183] | 1000 to 10000 nM
3 | CN(C)S(=O)(=O)n1nccc1-c1cc(NC(=O)c2cc(F)cc(C(F)(F)F)c2)c2c(c1)C(=O)N[C@@H]2c1cc(F)ccc1Cl [Compound I-1598] | 500 to 1000 nM
4 | O=C1NC(c2cc(F)ccc2Cl)c2c(NC(=O)C3COCCO3)cc(-c3ccc4ncnn4c3)cc21 (stereo not drawn) [Compound I-1910] | 10000 to 100000 nM
5 | N[C@H]1CCC[C@H](C(=O)Nc2cc(-c3ccc4ncnn4c3)cc3c2C(c2cc(F)ccc2Cl)NC3=O)C1 (mixture of isomers) [Compound I-1845] | 10000 to 100000 nM
6 | COc1nccc(Oc2cc(NC(=O)c3cc(F)cc(C(F)(F)F)c3)c3c(c2)C(=O)NC3c2cc(F)ccc2Cl)n1 (stereo not drawn) [Compound I-1148] | ≤ 100 nM
7 | O=C1N[C@@H](c2cc(F)ccc2Cl)c2c(NC(=O)N3C[C@@H](O)c4cc(F)ccc43)cc(-n3ccnn3)cc21 (single isomer, unassigned) [Compound I-2370] | 500 to 1000 nM
8 | NCc1cc(NC(=O)N2C[C@](O)(C(F)F)c3cc(F)ccc32)c2c(c1)C(=O)N[C@@H]2c1cc(F)ccc1Cl (single isomer, unassigned) [Compound I-2695] | 1000 to 10000 nM
9 | O=C1NC(c2cc(F)ccc2Cl)c2c(NC(=O)N3CCSc4ccccc43)cccc21 (stereo not drawn) [Compound I-2284] | 10000 to 100000 nM
10 | Cc1ccccc1[C@@H]1NC(=O)c2nccc(NC(=O)N3C[C@H](C)c4ccccc43)c21 (single isomer, unassigned) [Compound I-302] | 500 to 1000 nM
11 | O=C(Nc1cc(Br)cc2c1[C@H](c1ccccc1C(F)F)NC2=O)c1cc(F)cc(C(F)(F)F)c1 [Compound I-789] | ≤ 100 nM
12 | [2H][C@]1(c2cc(F)ccc2Cl)NC(=O)c2cccc(NC(=O)N3C[C@@](O)(C(F)(F)F)c4cc(F)ccc43)c21 (single isomer, unassigned) [Compound I-2683] | 1000 to 10000 nM
13 | COc1ccccc1C(=O)Nc1cc(Br)cc2c1C(c1cc(F)ccc1Cl)NC2=O (stereo not drawn) [Compound I-471] | 10000 to 100000 nM
14 | Cc1nn(C)cc1-c1cc(NC(=O)c2cc(F)cc(Cl)c2)c2c(n1)C(=O)NC2c1cc(F)ccc1Cl (stereo not drawn) [Compound I-380] | 100 to 500 nM
15 | O=C1NC(c2cc(F)ccc2Cl)c2c(NC(=O)N3CCCC(C(F)(F)F)C3)cc(Br)cc21 (mixture of isomers) [Compound I-432] | 500 to 1000 nM
16 | O=C(Nc1cc(N2CCc3cnccc32)cc2c1C(c1cc(F)ccc1Cl)NC2=O)c1cc(F)cc(C(F)(F)F)c1 (stereo not drawn) [Compound I-1261] | ≤ 100 nM
17 | O=C1NC(c2cc(F)ccc2Cl)c2c(NC(=O)N3CCCC4CCCC43)cc(Br)cc21 (stereo not drawn) [Compound I-722] | 100 to 500 nM
18 | O=C(Nc1cc(OCC(O)CCO)cc2c1C(c1cc(F)ccc1Cl)NC2=O)c1cc(F)cc(C(F)(F)F)c1 (stereo not drawn) [Compound I-1414] | ≤ 100 nM
19 | CS(=O)(=O)CCc1cc(NC(=O)c2cc(F)cc(C(F)(F)F)c2)c2c(c1)C(=O)NC2c1cc(F)ccc1Cl (stereo not drawn) [Compound I-1476] | ≤ 100 nM
20 | O=C(Nc1cccc2c1C(c1cc(F)ccc1Cl)NC2=O)c1cc(F)cnc1NC1CCC1 (stereo not drawn) [Compound I-768] | 1000 to 10000 nM
21 | O=C(Nc1cc(-c2ccn[nH]2)cc2c1[C@@H](c1cc(F)ccc1Cl)NC2=O)c1cc(F)cc(C(F)(F)F)c1 [Compound I-866] | 1000 to 10000 nM
22 | O=C(Nc1cccc2c1C(c1cc(F)ccc1Cl)NC2=O)c1cc(Cl)cc(F)c1F (stereo not drawn) [Compound I-767] | 100 to 500 nM
23 | NC(=O)c1cnccc1-c1cc(NC(=O)c2cc(F)cc(Cl)c2)c2c(n1)C(=O)NC2c1cc(F)ccc1Cl (stereo not drawn) [Compound I-507] | 1000 to 10000 nM

Row | Structure (SMILES) | IC50
24 | Cc1ncc(-c2cc(NC(=O)c3cc(F)cc(C(F)(F)F)c3)c3c(n2)C(=O)NC3c2cc(F)ccc2Cl)s1 (stereo not drawn) [Compound I-546] | ≤ 100 nM
25 | O=C1NC(c2cc(F)ccc2Cl)c2c(NCc3ccccc3)cc(Br)cc21 (stereo not drawn) [Compound I-1658] | 10000 to 100000 nM
26 | O=C1CC2(CCN(c3cc(NC(=O)c4cc(F)cc(C(F)(F)F)c4)c4c(c3)C(=O)NC4c3cc(F)ccc3Cl)C2)CN1 (stereo not drawn) [Compound I-1267] | ≤ 100 nM
27 | O=C(Nc1cc(-c2ccc3nccn3c2)cc2c1[C@H](c1cc(F)ccc1Cl)NC2=O)c1cc(F)cc(C(F)(F)F)c1 [Compound I-827] | ≤ 100 nM
28 | O=C(Nc1cc(C2(O)COCC2O)cc2c1C(c1cc(F)ccc1Cl)NC2=O)c1cc(F)cc(C(F)(F)F)c1 (stereo not drawn) [Compound I-1141] | 100 to 500 nM
29 | O=C1NC(c2ccccc2)c2c(NC(=O)c3csc4ccccc34)cccc21 (stereo not drawn) [Compound I-8] | 100 to 500 nM
30 | CC(C)(C)OC(=O)NCCSc1cc(NC(=O)c2cc(F)cc(C(F)(F)F)c2)c2c(c1)C(=O)NC2c1cc(F)ccc1Cl (stereo not drawn) [Compound I-1297] | 100 to 500 nM
31 | CC(=O)N[C@@H]1CCC[C@H](C(=O)Nc2cc(-c3ccc4ncnn4c3)cc3c2C(c2cc(F)ccc2Cl)NC3=O)C1 (mixture of isomers) [Compound I-1842] | 10000 to 100000 nM
32 | CC(c1nn[nH]c1C(=O)Nc1cccc2c1C(c1cc(F)ccc1Cl)NC2=O)C(F)(F)F (mixture of isomers) [Compound I-2180] | 10000 to 100000 nM
33 | CC(C)(O)COc1cc(NC(=O)c2cc(F)cc(C(F)(F)F)c2)c2c(n1)C(=O)NC2c1cc(F)ccc1Cl (stereo not drawn) [Compound I-1421] | 100 to 500 nM
34 | O=C(Nc1cc(CC2(O)CC2)cc2c1C(c1cc(F)ccc1Cl)NC2=O)c1cc(F)cc(C(F)(F)F)c1 (stereo not drawn) [Compound I-644] | ≤ 100 nM
35 | CC(=O)N1CCN(c2cc(-c3ccc4ncnn4c3)cc3c2C(c2cc(F)ccc2Cl)NC3=O)CC1 (stereo not drawn) [Compound I-2047] | 10000 to 100000 nM
36 | O=C(CCl)Nc1cc(NC(=O)c2cc(F)cc(C(F)(F)F)c2)c2c(c1)C(=O)NC2c1cc(F)ccc1Cl (stereo not drawn) [Compound I-407] | ≤ 100 nM
37 | O=C1NC(c2cc(F)ccc2Cl)c2c(NC(=O)C3CCCCC3)cc(-c3ccc4ncnn4c3)cc21 (stereo not drawn) [Compound I-1549] | 1000 to 10000 nM
38 | COc1cc(NC(=O)c2cc(F)cc(C(F)(F)F)c2)c2c(c1)C(=O)NC2c1cc(F)ccc1Cl (stereo not drawn) [Compound I-773] | ≤ 100 nM
39 | O=C1NC(c2cc(F)ccc2Cl)c2c(NC(=O)N3CCc4ccc(F)cc43)cc(Br)cc21 (stereo not drawn) [Compound I-1717] | ≤ 100 nM
40 | O=C(Nc1cc(CS(=O)(=O)Nc2cccnc2)cc2c1C(c1cc(F)ccc1Cl)NC2=O)c1cc(F)cc(C(F)(F)F)c1 (stereo not drawn) [Compound I-1402] | ≤ 100 nM
41 | N#Cc1cnn(Cc2cc(NC(=O)N3C[C@@](O)(C(F)(F)F)c4cc(F)ccc43)c3c(c2)C(=O)N[C@@H]3c2cc(F)ccc2Cl)c1 (single isomer, unassigned) [Compound I-2670] | 500 to 1000 nM
42 | O=C(Nc1cc(C(O)C(F)(F)F)cc2c1C(c1cc(F)ccc1Cl)NC2=O)c1cc(F)cc(C(F)(F)F)c1 (stereo not drawn) [Compound I-270, N-(3-(2-chloro-5-fluorophenyl)-1-oxo-6-(2,2,2-trifluoro-1-hydroxyethyl)isoindolin-4-yl)-3-fluoro-5-(trifluoromethyl)benzamide] | ≤ 100 nM
43 | CCn1cc(-c2cc(NC(=O)c3cc(F)cc(C(F)(F)F)c3)c3c(c2)C(=O)N[C@@H]3c2cc(F)ccc2Cl)ccc1=O [Compound I-703] | 10000 to 100000 nM
44 | O=C1Cc2cccc(NC(=O)c3cc(F)cc(C(F)(F)F)c3)c2C(c2ccccc2Cl)N1 (stereo not drawn) [Compound I-1178] | 1000 to 10000 nM
45 | N#Cc1cncn1Cc1cc(NC(=O)c2cc(F)cc(C(F)(F)F)c2)c2c(c1)C(=O)N[C@@H]2c1cc(F)ccc1Cl (stereo in doubt) [Compound I-1749] | 100 to 500 nM
